Data published in ChEMBL document CHEMBL1201862, “PubChem BioAssay data set” (2004).
Active and inactive are the calls of the source.

What was measured:
[1] = cytotoxicity toward DRD oncogenic fibroblasts, dose response, cell-based, non-viral oncogenic, luminescence (AID 1934); format: functional; conditions: Homo sapiens
[2] = microbe, parasite or virus in culture; format: functional; conditions: Mycobacterium tuberculosis
BJ [3] = assay: cytotoxicity toward Ras-transformed BJeLR fibroblasts, dose response, cell-based, alamar blue fluorescence, cherrypicked samples (AID 2631); format: functional; conditions: Homo sapiens;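 also: confirmatory dose-response assay in RAS-dependent BJ fibroblasts engineered with TERT, LT and ST, with cytotoxicity read by fluorescence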
BJ [4] = assay: cytotoxicity toward BJ-TERT-LT-ST fibroblasts, dose response, cell-based, RAS-independent, luminescence (AID 1935); format: functional; conditions: Homo sapiens;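 also: BJ fibroblasts immortalized with TERT plus LT and ST oncogenes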
[5] = target: T1, Replicative DNA helicase DnaB (Mycobacterium tuberculosis, UniProt P9WMR3); assay: DnaB intein splicing inhibitors, dose response, biochemical, cell-free fluorescence (AID 449749); format: functional
T1 sequence (P9WMR3 whole entry): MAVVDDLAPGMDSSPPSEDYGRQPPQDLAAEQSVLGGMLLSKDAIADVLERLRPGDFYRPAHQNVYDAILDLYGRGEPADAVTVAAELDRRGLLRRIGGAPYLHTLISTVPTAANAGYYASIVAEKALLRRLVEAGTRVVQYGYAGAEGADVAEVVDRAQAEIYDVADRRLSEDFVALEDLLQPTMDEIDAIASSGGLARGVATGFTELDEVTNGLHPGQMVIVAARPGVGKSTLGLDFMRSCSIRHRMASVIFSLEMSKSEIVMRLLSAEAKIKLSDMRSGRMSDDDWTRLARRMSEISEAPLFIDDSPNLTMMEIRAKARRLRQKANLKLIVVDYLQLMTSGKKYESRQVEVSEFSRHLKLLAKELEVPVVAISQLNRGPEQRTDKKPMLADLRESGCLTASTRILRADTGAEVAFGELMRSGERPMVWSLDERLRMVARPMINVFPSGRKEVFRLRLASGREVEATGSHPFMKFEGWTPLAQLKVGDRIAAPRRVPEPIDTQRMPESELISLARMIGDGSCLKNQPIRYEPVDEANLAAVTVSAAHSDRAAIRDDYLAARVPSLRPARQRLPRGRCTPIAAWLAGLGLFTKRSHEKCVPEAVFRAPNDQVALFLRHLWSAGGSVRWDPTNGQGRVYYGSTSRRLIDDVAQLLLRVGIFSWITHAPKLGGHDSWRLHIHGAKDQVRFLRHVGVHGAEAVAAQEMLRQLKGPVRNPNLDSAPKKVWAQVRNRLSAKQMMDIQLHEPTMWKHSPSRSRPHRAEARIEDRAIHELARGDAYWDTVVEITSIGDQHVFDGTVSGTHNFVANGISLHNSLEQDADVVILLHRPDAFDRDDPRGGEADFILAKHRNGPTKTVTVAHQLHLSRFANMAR

BJ [6] = assay: cytotoxicity toward BJ-TERT fibroblasts, dose response, cell-based, RAS-independent, luminescence (AID 1933); format: functional; conditions: Homo sapiens
BJ [7] = assay: cells; format: functional, cell-based; conditions: Homo sapiens
Protein RecA = target: T2, Protein RecA (Mycobacterium tuberculosis, UniProt P9WHJ3); assay: Fluorescence Cell-Free Homogeneous Dose Retest to Identify Inhibitors of RecA-Intein Splicing Activity. [Related pubchem assays (depositor defined):AID2097, AID2223, AID489010, AID492950]; format: functional
T2 sequence (P9WHJ3 whole entry): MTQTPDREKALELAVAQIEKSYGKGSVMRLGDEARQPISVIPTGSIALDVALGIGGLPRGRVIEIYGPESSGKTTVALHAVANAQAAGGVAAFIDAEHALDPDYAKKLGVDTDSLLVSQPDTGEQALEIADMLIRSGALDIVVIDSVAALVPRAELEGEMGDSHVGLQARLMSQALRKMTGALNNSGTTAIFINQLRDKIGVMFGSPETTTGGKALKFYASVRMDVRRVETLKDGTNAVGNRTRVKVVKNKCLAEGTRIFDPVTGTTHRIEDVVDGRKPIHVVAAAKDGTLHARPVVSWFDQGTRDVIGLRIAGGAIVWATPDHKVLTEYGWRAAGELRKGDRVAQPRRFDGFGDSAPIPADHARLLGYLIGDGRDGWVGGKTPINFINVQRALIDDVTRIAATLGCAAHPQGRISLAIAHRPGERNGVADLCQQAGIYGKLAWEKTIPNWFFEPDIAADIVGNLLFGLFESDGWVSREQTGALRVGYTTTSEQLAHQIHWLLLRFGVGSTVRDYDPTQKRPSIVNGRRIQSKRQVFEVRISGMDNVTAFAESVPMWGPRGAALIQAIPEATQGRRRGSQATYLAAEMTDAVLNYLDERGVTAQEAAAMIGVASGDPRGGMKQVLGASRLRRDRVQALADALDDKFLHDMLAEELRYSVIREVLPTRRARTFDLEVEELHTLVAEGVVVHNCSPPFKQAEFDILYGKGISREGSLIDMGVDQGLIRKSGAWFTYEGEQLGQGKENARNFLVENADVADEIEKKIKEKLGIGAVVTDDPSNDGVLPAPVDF

[8] = target: T3, Short transient receptor potential channel 4 (Mus musculus, UniProt Q9QUQ5); assay: mouse TRPC4 channel activators, dose response, cell-based, HEK293 TRPC4/mu-opioid, Fluo-4 calcium (AID 434937); format: functional
T3 sequence (Q9QUQ5 whole entry): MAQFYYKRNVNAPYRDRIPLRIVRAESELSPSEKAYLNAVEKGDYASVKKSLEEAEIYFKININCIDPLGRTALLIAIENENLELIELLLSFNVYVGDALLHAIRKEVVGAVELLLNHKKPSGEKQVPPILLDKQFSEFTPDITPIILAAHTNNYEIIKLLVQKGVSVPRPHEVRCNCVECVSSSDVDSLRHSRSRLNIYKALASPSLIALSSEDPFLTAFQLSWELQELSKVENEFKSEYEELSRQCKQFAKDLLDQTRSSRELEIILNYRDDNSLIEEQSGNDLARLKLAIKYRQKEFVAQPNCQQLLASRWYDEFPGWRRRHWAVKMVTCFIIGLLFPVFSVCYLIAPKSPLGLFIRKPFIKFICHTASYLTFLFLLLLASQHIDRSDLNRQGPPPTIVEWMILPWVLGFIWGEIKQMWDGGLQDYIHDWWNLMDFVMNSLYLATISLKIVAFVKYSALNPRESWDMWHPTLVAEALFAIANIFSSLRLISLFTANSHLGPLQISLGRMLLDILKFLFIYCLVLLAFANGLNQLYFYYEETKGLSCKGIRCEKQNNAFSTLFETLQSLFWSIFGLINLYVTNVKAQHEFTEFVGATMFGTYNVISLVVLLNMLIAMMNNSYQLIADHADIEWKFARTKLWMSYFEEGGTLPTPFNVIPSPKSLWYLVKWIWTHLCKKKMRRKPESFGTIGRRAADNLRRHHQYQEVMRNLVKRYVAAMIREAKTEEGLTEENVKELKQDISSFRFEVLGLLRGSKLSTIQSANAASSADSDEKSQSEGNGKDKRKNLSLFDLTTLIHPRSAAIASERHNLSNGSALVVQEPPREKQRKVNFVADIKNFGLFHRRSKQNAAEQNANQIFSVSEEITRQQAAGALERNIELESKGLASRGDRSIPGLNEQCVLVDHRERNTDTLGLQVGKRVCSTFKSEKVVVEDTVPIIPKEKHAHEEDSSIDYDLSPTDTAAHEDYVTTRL

[9] = test system: Streptococcus sp. 'group A'; assay: growth inhibition of control SK(-) GAS strain, dose response, counter-screen for streptokinase expression inhibitor project, luminescence, kanamycin, BacTiterGlo, confirmation (AID 1900); format: functional, organism-based
[10] = target: T4, High affinity choline transporter 1 (Homo sapiens, UniProt Q9GZV3); assay: CHT inhibitors, dose response, cell-based, 5-point CRC, membrane potential dye (AID 504840); format: functional
T4 sequence (Q9GZV3 whole entry): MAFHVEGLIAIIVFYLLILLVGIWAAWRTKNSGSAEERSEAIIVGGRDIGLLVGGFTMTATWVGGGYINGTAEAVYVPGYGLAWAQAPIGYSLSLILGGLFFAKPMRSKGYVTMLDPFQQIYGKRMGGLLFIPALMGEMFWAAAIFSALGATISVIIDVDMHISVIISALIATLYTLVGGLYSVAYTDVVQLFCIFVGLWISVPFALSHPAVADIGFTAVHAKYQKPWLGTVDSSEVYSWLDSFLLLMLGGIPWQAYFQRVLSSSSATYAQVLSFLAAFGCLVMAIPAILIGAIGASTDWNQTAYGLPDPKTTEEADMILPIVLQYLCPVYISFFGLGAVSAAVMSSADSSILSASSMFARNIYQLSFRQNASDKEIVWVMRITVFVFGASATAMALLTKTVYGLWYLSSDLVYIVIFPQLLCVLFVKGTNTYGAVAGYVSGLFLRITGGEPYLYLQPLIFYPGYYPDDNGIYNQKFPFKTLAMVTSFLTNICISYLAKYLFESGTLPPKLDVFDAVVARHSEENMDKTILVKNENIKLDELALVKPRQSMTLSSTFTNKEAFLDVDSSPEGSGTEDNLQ

HEK293 [11] = assay: NOD1 signaling inhibitors, primary screen, cell-based, luminescence, uHTS (AID 1578); format: functional; conditions: Homo sapiens
HEK293 [12] = assay: cells; format: functional, cell-based; conditions: Homo sapiens
Streptococcus = assay: Group A Streptococcus viability loss, dose response, counter-screen for streptokinase expression inhibitor project, luminescence, BacTiterGlo (AID 1915); format: functional, organism-based;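 also: potency for reduction of bacterial viability or growth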
HEK293 [13] = assay: NOD2 signaling inhibitors in MDP-stimulated cells, cell-based, uHTS, luminescence (AID 2001); format: functional; conditions: Homo sapiens
HEK293 [14] = assay: cells; format: functional, cell-based; conditions: Homo sapiens; remark: listed apart in the source
[15] = target: T5, Adenosylmethionine-8-amino-7-oxononanoate aminotransferase (Mycobacterium tuberculosis, UniProt P9WQ81); assay: Mycobacterium tuberculosis BioA enzyme inhibitor Measured in Biochemical System Using Plate Reader - 2163-02_Inhibitor_Dose_CherryPick_Activity.; format: functional, Mycobacterium tuberculosis UT205
T5 sequence (P9WQ81 whole entry): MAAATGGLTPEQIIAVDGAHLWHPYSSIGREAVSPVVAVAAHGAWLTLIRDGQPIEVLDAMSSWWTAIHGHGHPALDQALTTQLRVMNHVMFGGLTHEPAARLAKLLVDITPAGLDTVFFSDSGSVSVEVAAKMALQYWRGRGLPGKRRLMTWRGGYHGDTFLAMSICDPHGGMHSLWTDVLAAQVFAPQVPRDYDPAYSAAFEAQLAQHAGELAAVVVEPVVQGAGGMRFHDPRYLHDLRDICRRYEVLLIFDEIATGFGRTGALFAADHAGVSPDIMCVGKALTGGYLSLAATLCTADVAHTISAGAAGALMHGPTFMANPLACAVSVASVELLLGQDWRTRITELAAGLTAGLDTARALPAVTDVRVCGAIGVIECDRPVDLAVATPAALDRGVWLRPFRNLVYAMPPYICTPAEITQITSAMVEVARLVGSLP

[16] = THP-1 cell cytotoxicity, dose response, cytotoxicity control for Vif-APOBEC3G degradation inhibitor project, THP-1 cells (AID 1117359); format: functional; conditions: Human immunodeficiency virus 1, THP-1
[17] = target: FAD-linked sulfhydryl oxidase ALR (Homo sapiens, UniProt P55789); assay: inhibitors of human ALR sulfhydryl oxidase, dose response, biochemical, H2O2 detection, luminescence, cherry-pick (AID 493248)
FAD-linked sulfhydryl oxidase ALR, sequence (P55789 whole entry): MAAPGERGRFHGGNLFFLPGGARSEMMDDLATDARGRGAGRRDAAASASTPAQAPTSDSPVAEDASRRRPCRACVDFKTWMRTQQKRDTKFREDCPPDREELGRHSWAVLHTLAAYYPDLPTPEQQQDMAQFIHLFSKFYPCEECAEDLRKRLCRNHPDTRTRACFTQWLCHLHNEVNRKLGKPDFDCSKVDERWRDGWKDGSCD

[18] = target: Induced myeloid leukemia cell differentiation protein Mcl-1 (Homo sapiens, UniProt Q07820); format: functional
Induced myeloid leukemia cell differentiation protein Mcl-1, sequence (Q07820 whole entry): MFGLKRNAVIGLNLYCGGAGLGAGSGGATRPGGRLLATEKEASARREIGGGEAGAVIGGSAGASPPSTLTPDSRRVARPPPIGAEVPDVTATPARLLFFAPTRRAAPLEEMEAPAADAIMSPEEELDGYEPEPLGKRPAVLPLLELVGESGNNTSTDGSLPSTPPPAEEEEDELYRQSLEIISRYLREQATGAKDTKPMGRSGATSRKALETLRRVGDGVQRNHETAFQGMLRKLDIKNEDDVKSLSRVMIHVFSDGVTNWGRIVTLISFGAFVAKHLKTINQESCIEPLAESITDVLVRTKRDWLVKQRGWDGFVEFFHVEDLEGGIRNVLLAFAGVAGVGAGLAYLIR

[19] = growth suppression of beta-catenin-knockout colon cells, dose response, cell-based, HCT116, human colon tumor (AID 1045); format: functional;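 also: HCT116 colon tumor cells with beta catenin knocked out; cells exposed to compound for 60 hours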
[20] = growth suppression of PTEN-null colon cells, dose response, cell-based, HCT116 PTEN knockout (AID 1047); format: functional;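 also: HCT116 colon tumor cells with PTEN knocked out; cells exposed to compound for 60 hours before readout; potency for loss of cell viability measured by luminescence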

Row | Structure (SMILES) | EC50 [1] | EC50 (BJ [3]) | EC50 (BJ [4]) | EC50 (BJ [6]) | EC50 (BJ [7]) | AC50 [15] | other results
1 | Cc1ccc(C2CC(c3cccs3)=NN2C(=O)CCl)cc1 (stereo not given) | 5.15 µM (inconclusive) | 2.87 µM (active) | 6 µM (active) | 0.911 µM (active) | 5.54 µM (active) |  | CC50 [2]: 2.24 µM (active); AC50 [5]: 1.23 µM (active); EC50 (Protein RecA): 0.943 µM (active)
2 | O=c1c2cc(Br)ccc2nc(-c2ccc(Cl)cc2)n1O |  |  |  |  |  |  | EC50 [8]: 6.68 µM (active); EC50 [9]: 1.24 µM (active); IC50 [10]: 5.01 µM (active); EC50 (HEK293 [11]): 6.02 µM (active); IC50 (HEK293 [12]): > 20 µM (inactive); EC50 (Streptococcus): 2.6 µM (active); IC50 (HEK293 [13]): 14.2 µM (inactive); IC50 (HEK293 [14]): > 20 µM (inactive)
3 | CC(=O)N1CC[C@@H]2[C@@H](CO)N(C)c3ccc(-c4cccc(F)c4)cc3[C@@H]21 |  |  |  |  |  | 0.832 µM (active) | 
4 | COc1ccc(C)cc1Nc1c2c(nc3ccccc13)CCC2 | 7.71 µM (inconclusive) | 0.174 µM (active) | 1 µM (inconclusive) | 3.98 µM (inconclusive) | 15.1 µM (inconclusive) |  | CC50 [16]: 0.62 µM (active)
5 | COc1cc(C(=O)Nc2cccnc2)cc(OC)c1OC |  |  |  |  |  | 2.14 µM (active) | 
6 | Cc1cc(C(=O)CSc2nncs2)c(C)n1-c1ccc2c(c1)OCO2 |  |  |  |  |  | 1.67 µM (active) | 
7 | COc1ccc(NC2c3ccccc3C(=O)N2c2cccnc2)cc1Cl (stereo not given) |  |  |  |  |  | 4.04 µM (active) | AC50 [17]: 4.34 µM (active)
8 | CCOc1ccccc1Nc1nc(-c2sc(NC(=O)c3ccc([N+](=O)[O-])cc3)nc2C)cs1 | 7.92 µM (active) | > 133 µM (inactive) | > 150 µM (inconclusive) | 7.64 µM (active) | 12.7 µM (active) |  | IC50 [18]: 13.4 µM (active); EC50 [19]: 7.38 µM (active); EC50 [20]: 9.09 µM (active)
